Measurements reported in the supplement of paper PMC10307832.

Assays:
Assay in all cases: relative viability (nuclei count vs DMSO), 5 days (fraction); higher = more cells survive
Dabrafenib = compound: CC(C)(C)c1nc(-c2cccc(NS(=O)(=O)c3c(F)cccc3F)c2F)c(-c2ccnc(N)n2)s1 [Dabrafenib]
How it was run: (§1)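 Viability was defined as treated-well nuclei divided by vehicle-well nuclei, with the median taken over replicate plates. Cells from lung cancer lines sat overnight at 37 °C in 1536-well plates, received five √10-spaced library-drug doses by pinning on vehicle-anchored plates, and grew 5 days without medium change before one-step fixation, permeabilisation and Hoechst staining, 4× imaging and MetaXpress nuclear counts. Only plates with control CV under 25% and at least one doubling were kept.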

VX-702 = compound: NC(=O)c1ccc(N(C(N)=O)c2c(F)cccc2F)nc1-c1ccc(F)cc1F [VX-702]
How it was run: as §1

Dabrafenib + Alpelisib = compound: CC(C)(C)c1nc(-c2cccc(NS(=O)(=O)c3c(F)cccc3F)c2F)c(-c2ccnc(N)n2)s1 [Dabrafenib] + Cc1nc(NC(=O)N2CCC[C@H]2C(N)=O)sc1-c1ccnc(C(C)(C)C(F)(F)F)c1 [Alpelisib] (partner 2 µM)
How it was run: (§2)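 Values are medians from duplicate plates. Each reflects relative viability, defined as the nuclei count of treated wells over that of vehicle wells. Lung cancer cell lines in 1536-well plates were pin-tool dosed one day after seeding with one drug alone or with a fixed anchor-drug dose plus five library-drug doses (not always all listed) in √10 steps, then fixed, stained and imaged at 4× after 5 days.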

VX-702 + Bortezomib = compound: NC(=O)c1ccc(N(C(N)=O)c2c(F)cccc2F)nc1-c1ccc(F)cc1F [VX-702] + CC(C)C[C@H](NC(=O)[C@H](Cc1ccccc1)NC(=O)c1cnccn1)B(O)O [Bortezomib] (partner 0.002 µM)
How it was run: as §2

Cell Line	relative viability (Dabrafenib; 0.003 µM)	relative viability (Dabrafenib; 0.009487 µM)	relative viability (Dabrafenib; 0.03 µM)	relative viability (Dabrafenib; 0.09487 µM)	relative viability (Dabrafenib; 0.3 µM)	relative viability (VX-702; 0.02 µM)	relative viability (VX-702; 0.2 µM)	relative viability (VX-702; 0.6325 µM)	relative viability (VX-702; 2 µM)	relative viability (Dabrafenib + Alpelisib; first compound 0.003 µM)	relative viability (Dabrafenib + Alpelisib; first compound 0.009487 µM)	relative viability (Dabrafenib + Alpelisib; first compound 0.03 µM)	relative viability (Dabrafenib + Alpelisib; first compound 0.09487 µM)	relative viability (Dabrafenib + Alpelisib; first compound 0.3 µM)	relative viability (VX-702 + Bortezomib; first compound 0.02 µM)	relative viability (VX-702 + Bortezomib; first compound 0.2 µM)	relative viability (VX-702 + Bortezomib; first compound 0.6325 µM)	relative viability (VX-702 + Bortezomib; first compound 2 µM)
NCI-H520	0.974	0.941	0.795	0.884	0.921	0.969	0.925	1.03	1.07	0.934	0.881	0.708	0.881	0.914	0.4	0.663	0.479	0.677
HCC-44	0.885	0.971	1.01	0.921	0.933	1.05	0.979	1.08	1.05	0.751	0.792	0.789	0.732	0.807	0.909	0.856	0.845	0.992
NCI-H1915	1.03	1.04	0.823	0.523	0.579	1.08	1	1	1.05	1.03	1.05	0.979	0.897	0.984	1.06	0.893	0.991	1.01
NCI-H2126	0.875	1.06	0.994	1.02	1.08	1.03	0.963	1.02	0.954	0.706	0.78	0.74	0.796	0.777	1.11	1.06	1.11	1.25
NCI-H596	–	1.13	0.768	1.03	1.1	1.04	0.829	1.02	1.07	0.408	0.578	0.427	0.534	0.566	1.2	0.963	0.962	1.25
NCI-H23	–	0.913	0.85	0.642	0.919	1.07	0.87	1.1	1.16	–	0.787	0.554	0.652	0.791	1.07	0.892	1.22	1.16
NCI-H650	–	1.17	0.708	0.575	0.564	1.04	–	1.07	1.24	–	1.09	0.953	0.906	0.706	0.802	–	1.05	1.07
Calu-6	1.03	1.03	0.909	0.805	0.786	1.11	1	1.08	1.21	0.964	0.896	0.92	0.723	0.593	1.04	1.12	1.24	1.16
LCLC-103H	0.883	1.11	0.919	1.01	1.07	0.98	0.999	0.952	1.13	0.726	1.16	0.912	0.853	0.972	1.17	0.949	1.05	1.11
NCI-H441	–	0.96	1.01	0.51	0.766	1.14	0.952	0.934	0.992	–	0.915	0.817	0.677	0.692	0.641	0.463	0.492	0.575
UMC-11	1.04	0.988	0.855	0.997	0.956	0.923	0.857	0.82	1.12	1.08	1.01	1	0.937	0.935	0.717	0.666	0.689	0.827
COR-L23	0.976	1	0.968	0.93	0.998	1.17	1.05	1.16	1.21	0.715	0.784	0.713	0.678	0.85	1.08	1.02	1.15	1.21
NCI-H2405	–	0.931	0.7	0.898	0.961	1.09	0.941	0.978	1.12	–	0.768	–	0.644	0.701	1.04	0.604	0.702	0.977
HOP-62	0.778	1.02	1.03	0.685	0.812	1.06	0.988	1.09	1.05	–	1	0.734	0.902	0.771	0.67	0.566	0.696	0.653
NCI-H1975	0.936	0.982	0.925	0.778	0.854	0.97	0.923	1.08	1.22	0.68	0.687	0.635	0.624	0.535	0.367	0.281	0.353	0.391
NCI-H2085	0.846	1.06	1	0.999	1.09	1.06	1.05	1	0.99	0.949	1.02	0.93	0.997	0.954	1.08	1.06	1.03	1
NCI-H460	0.965	0.954	0.919	0.968	0.985	1.02	0.95	1.06	0.989	0.508	0.599	0.394	0.567	0.592	1.14	1.15	1.22	1.17
NCI-H1755	0.99	1.03	0.875	0.94	0.971	1.01	1.03	1.1	0.998	0.907	0.937	0.734	0.904	0.875	0.964	0.911	1.07	0.979
